What was measured:
[1] = set-up: species or system rats; details: rat, in vivo
Method: Studies of the disposition of compound 11 ((3′R,4′R)-3′,4′-di-O-(S)-(−)-camphanoyl-3-hydroxymethyl-4-methyl-(+)-cis-khellactone) and 4-methyl-DCK ((3′R,4′R)-3′,4′-di-O-(S)-(−)-camphanoyl-4-methyl-(+)-cis-khellactone) were conducted in rats. 4-Methyl-DCK can be prepared, for example, as described in U.S. Pat. No. 5,847,165. The rats ordered from Charles River with jugular catheters in place were allowed to acclimate for one to two days prior to use. The venous catheter was kept patent by flushing daily with heparin solution. […]
Reversed phase HPLC was conducted with an ODS, 5 μM particle size, 150×10 mm Axxiom column (Thompson Instruments, Chantilly, Va.) using 55% acetonitrile and water as the mobile phase with 25 mM acetic acid buffer at 1.5 mL/min. Detection was carried out at 320 nm (λmax) for UV detection and at an excitation wavelength of 320 nm. The equipment for HPLC was an HP 1100 system with UV and quantitative analysis was performed using the HP Chemstation. […]
Weighed amounts (approximately 7-8 mg) of 4-methyl-DCK were suspended in 1 mL of 10% Tween 80/water, then administered to two rats (250-300 g) by oral gavage using a feeding needle to provide an oral dose of 25 mg/kg. Blood samples (0.3 mL) were collected at 0, 0.25, 0.50, 0.75, 1.0, 1.5, 2, 4, 8, and 23 hours following the oral dosing. Approximately 0.01 mL of heparin was added to each sample. The samples were then centrifuged to collect 0.10 mL of plasma. The plasma samples were frozen at −20° C. prior to analysis. The samples were thawed and analyzed by reversed phase HPLC within two weeks of collection.
Reversed phase HPLC was conducted with an ODS, 5 μM particle size, 150×10 mm Axxiom column (Thompson Instruments, Chantilly, Va.) using 60% acetonitrile/0.1% TFA in water as the mobile phase. Detection was carried out at 320 nm (λmax) for UV detection. The equipment for HPLC was an HP 1050 quaternary HPLC pump, an HP 1050 UV detector at 320 nm and range 0.2, an HP 3390 integrator, and a BioRad Model AS-100 autosampler.
Standard curves were prepared by addition of appropriate diluted stock solutions of 4-methyl-DCK to 0.10 mL plasma (pooled human plasma) to provide concentration of zero, and 0.05 to 20 μg/mL in a 13×100 mm culture tube. Internal standard solution (0.025 mL of 0.01 mg/mL DCK) was then added to each tube. The spiked samples were briefly vortexes, then allowed to equilibrate for at least 10 minutes prior to further workup. […]
The HPLC assay was partially validated to have a range of 0.125 to 20 μg/mL in plasma, with a detection limit of 50 ng/mL. Recovery from plasma was determined by spiking 4-methyl-DCK into plasma the same way as was done in the preparation of the standard curve, and preparing samples as described above, but adding DCK as an external standard just prior to injection. […]

HIV-1 (IIIB isolate) = assay: Anti-HIV activity in H9 lymphocytes (p24 antigen ELISA); type: cell-based; details: H-9 lymphocytes; for Anti-HIV Activity EC50: HIV-1 IIIB, p24 ELISA, day 5, average of at least two experiments; for Therapeutic Index (TI = IC50/EC50): ratio of IC50 to EC50
Method: (§1) The biological evaluation of HIV-1 inhibition was carried out according to established protocols, (Kashiwada, Y., et al., J. Med. Chem. 39:1016-1017 (1996); Hashimoto, F., et al., Bioorg. & Med. Chem. 5:2133-2143 (1997)). The T cell line, H9, was maintained in continuous culture log-phase growth in complete medium (RPMI 1640 with 10% fetal calf serum supplemented with L-glutamine at 5% CO2 and 37° C.). Test samples were first dissolved in dimethyl sulfoxide at a concentration of 10 mg/ml to generate master stocks with dilutions made into tissue culture media to generate working stocks. The following drug concentrations were used routinely for screening: 50, 5, and 0.5 μg/mL. For agents found to be active, additional dilutions were prepared for subsequent testing so that an accurate EC50 value (defined below) could be determined. As the test samples were being prepared, an aliquot of the H9 cell line was infected with HIV-1 (IIIB isolate) while a second aliquot was mock-infected with complete medium. […] An amount of virus equal to approximately 6.25×10^4 TCID50 was added to the first aliquot of 3.5×10^6H9 cells. The second aliquot received tissue culture medium only, and these mock-infected cells were used for toxicity determinations (IC50 defined below). After a 4 h incubation at 37° C. and 5% CO2, both cell populations were washed three times with fresh medium and then added to the appropriate wells of a 96-well plate containing various concentrations of the test drug or tissue culture medium (positive infected control/negative drug control). In addition, AZT was assayed during each experiment as a positive drug control. The plates were incubated at 37° C. and 5% CO2 for 5 days. Cell-free culture supernatants were collected on Day 5 for use in a p24 antigen-capture ELISA assay to determine virus replication. p24 is the core protein of HIV and therefore is an indirect measure of the amount of virus present in the culture supernatants. Toxicity was determined using a viable dye method (XTT) on mock-infected H9 cells that were treated with test sample, AZT or no drug. If a test sample suppressed viral replication and was toxic to less than 50% of the cells, its effects were reported in the following terms: IC50, the concentration of test sample which was toxic to 50% of the mock-infected H9 cells; EC50, the concentration of the test sample which was able to suppress HIV replication by 50%; and Therapeutic Index (TI), the ratio of IC50 to EC50.
(§2) Compounds of the present invention were assayed for anti-HIV activity according to the following assay procedures. The T cell line, H9, and the promonocytic cell line, U937, were maintained separately in continuous culture with complete medium (RPMI 1640 with 10% fetal calf serum) at 5% CO2 and 37° C. The cell lines were used in experiments only when in the logarithmic phase of growth, whereas uninfected peripheral blood mononuclear cells (PBMCs) were first stimulated with PHA (1 μg/mL) for three days. All cell targets were incubated with HIV-1 (IIIB isolate, 1×10^6 TCID50/mL) for one hour at 37° C. and 5% CO2. The cell lines and PBMCs were washed thoroughly to remove unadsorbed virions and resuspended at 4×10^5 cells/mL in complete medium or complete medium with 10% v/v interleukin 2 (IL-2), respectively. […] aliquots were placed into wells of 96-well tissue culture plates containing an equal volume of test compounds (diluted in the appropriate culture medium). The toxicity of each compound was assessed by determining the viability of compound-exposed uninfected cells after five days at 37° C. and 5% CO2. A p24 antigen ELISA assay was used to determine the level of virus released in the medium of the HIV-infected cultures. The p24 antigen assay used a HIV-1 anti-p24 specific monoclonal antibody as the capture antibody coated onto 96-well plates. […]

mock-infected H9 cells = assay: Cytotoxicity in mock-infected (uninfected) H9 cells; type: cell-based
Method: as §1, §2

[2] = tested on: HIV-1 replication in H9 lymphocyte cells; details: background art, cited from earlier work; for EC50: read-out: EC50 against HIV-1 replication

Row | Anti-HIV Activity EC50 (HIV-1 (IIIB isolate)) [µg/mL] | Structure (SMILES) | Therapeutic Index (TI = IC50/EC50) (HIV-1 (IIIB isolate)) | Cytotoxicity IC50 (mock-infected H9 cells) [µg/mL] | EC50 [2] [nM] | therapeutic index (TI) [2] | further results
1 | – | Cc1cc(=O)oc2c3c(ccc12)OC(C)(C)[C@H](OC(=O)[C@@]12CCC(C)(C(=O)O1)C2(C)C)[C@@H]3OC(=O)[C@@]12CCC(C)(C(=O)O1)C2(C)C (relative stereo) [Compound 4-methyl-DCK, (3′R,4′R)-3′,4′-di-O-(S)-(−)-camphanoyl-4-methyl-(+)-cis-khellactone, reference compound] | – | – | – | – | concentration in plasma after oral administration ([1]; po, 25 mg/kg): less than 50 ng/mL
2 | 0.0161 | Cc1c(CO)c(=O)oc2c3c(ccc12)OC(C)(C)[C@H](OC(=O)[C@@]12CCC(C)(C(=O)O1)C2(C)C)[C@@H]3OC(=O)[C@@]12CCC(C)(C(=O)O1)C2(C)C (relative stereo) [Compound 11, (3′R,4′R)-3′,4′-Di-O-(S)-(−)-camphanoyl-3-hydroxymethyl-4-methyl-(+)-cis-khellactone] | 1,320 | 21.2 | – | – | oral bioavailability (Foral) [1]: 15%; clearance ([1]; iv): 83 mL/min/kg; time at which Cmax occurs ([1]; po): 120 to 240 min
3 | – | CC1(C)Oc2ccc3ccc(=O)oc3c2[C@@H](OC(=O)[C@@]23CCC(C)(C(=O)O2)C3(C)C)[C@H]1OC(=O)[C@@]12CCC(C)(C(=O)O1)C2(C)C (relative stereo) [DCK, 3′,4′-di-O-(S)-(−)-camphanoyl-(3′R,4′R)-(+)-cis-khellactone] | – | – | 0.256 | 136,719 | –
4 | 0.045 | Cc1cn([C@H]2C[C@H](N=[N+]=[N-])[C@@H](CO)O2)c(=O)[nH]c1=O [AZT, reference compound] | 41,667 | 1875 | – | – | –
5 | – | CC(=O)O[C@@H]1[C@H](OC(=O)CC(C)C)c2c(ccc3ccc(=O)oc23)OC1(C)C [suksdorfin, (3′R,4′R)-3′-acetoxy-4′-isovaleryloxy-(+)-cis-khellactone] | – | – | 1300 | 140 | –

From patent US6768007B2, “Substituted 3′,4′-di-O-camphanoyl-(+)-cis-khellactone analogs, compositions thereof, and methods for using thereof” (Panacos Pharmaceuticals, Inc., priority 2001, dated 2004)
